Test results as given in ChEMBL document CHEMBL1156829 (Proc Natl Acad Sci U S A, 2008).

Experiments:
[1] = NOVARTIS: Cytotoxicity against human hepatocellular carcinoma cell line (Huh7); assay type: toxicity, cell-based, Huh-7; conditions: Huh7 cells (hepatocellular carcinoma cell line)
Plasmodium falciparum [2] = test: NOVARTIS: Inhibition of Plasmodium falciparum W2 (drug-resistant) proliferation in erythrocyte-based infection assay; assay type: functional, organism-based; conditions: Plasmodium falciparum, W2; read-out: EC50
Plasmodium falciparum [3] = test: NOVARTIS: Inhibition of Plasmodium falciparum 3D7 (drug-susceptible) proliferation in erythrocyte-based infection assay; assay type: functional, organism-based; conditions: Plasmodium falciparum, 3D7

| Compound | CC50 [1] | EC50 (Plasmodium falciparum [2]) | EC50 (Plasmodium falciparum [3]) |
| --- | --- | --- | --- |
| CC(C)(C)NC(=O)C(c1ccc(F)cc1)N(CCCN1CCOCC1)C(=O)c1ccc(-c2ccccc2)[nH]1 (centres undefined) | > 10000 nM | 562 nM | 1010 nM |
| Brc1ccc(Nc2nc(NCc3ccco3)c3ccccc3n2)cc1 | 7150 nM | 192 nM | 196 nM |
| CCc1ccccc1NC(C)=O | > 100000 nM | 5410 nM | > 12500 nM |
| CCC(c1nc2ccccc2c(=O)n1-c1ccc(Br)cc1)N(CCc1ccccc1)C(=O)c1cccc(C(F)(F)F)c1 (centres undefined) | > 10000 nM | 545 nM | 871 nM |
| Oc1ccc(Nc2nc(NCc3ccco3)c3ccccc3n2)cc1 | 19700 nM | 1110 nM | 86.1 nM |
| COc1c(N2CCN(Cc3c(C)cc(C)cc3C)CC2)c2nc3oc2c2c(OC(=O)C(C)(C)C)c(C)c4c(c12)[C@@H](O)[C@@](C)(OC=C[C@H](OC)[C@@H](C)[C@@H](OC(C)=O)C(C)[C@H](O)[C@H](C)[C@@H](O)C(C)C=CC=C3C)O4 (some centres undefined) | > 10000 nM | 554 nM | 221 nM |
| Cc1c[n+](Cc2ccccc2)ccc1/C=C/c1ccccc1 | > 10000 nM | 543 nM | 502 nM |
| COc1ccc(/C=C2\SC(=Nc3ccc(F)cc3)NC2=O)c(OC)c1 | > 10000 nM | 543 nM | 270 nM |
| CN(C)CCNC(=O)COc1ccc(-c2nc3ccccc3s2)cc1CN(C)C | > 10000 nM | 557 nM | 622 nM |
| CC(C)N1CC[C@@H](N2CCN(c3cccc(C(F)(F)F)c3)CC2)[C@@H](CCC(=O)N(C)C2CCN(C)CC2)C1 | 5130 nM | 285 nM | > 1040 nM |
| O=C(NN=CC1CC=CCC1)c1ccc([N+](=O)[O-])cc1Cl (centres undefined) | > 10000 nM | > 549 nM | > 1250 nM |
| NNC(=O)C1CCCN1S(=O)(=O)c1ccc(Cl)cc1 (centres undefined) | > 10000 nM | 547 nM | 564 nM |
| COc1cc(C(=O)N2CCN(Cc3cccc(Br)c3)CC2)cc(OC)c1OC | > 100000 nM | 5580 nM | > 12500 nM |
| CC1=C(C(=O)Nc2ccccn2)C(c2ccc(O)cc2)n2ncnc2N1 (centres undefined) | > 10000 nM | 561 nM | > 1250 nM |
| Cc1sc2nc(C3CC3)n(C3CCN(C(=O)C4CC=CCC4)CC3)c(=O)c2c1C (centres undefined) | > 10000 nM | > 560 nM | > 1250 nM |
| COc1cc(/C=C(\C#N)c2nc3ccccc3[nH]2)ccc1OCc1ccc(Cl)cc1 | > 10000 nM | 558 nM | 321 nM |
| CCOC(=O)C1=NNC2C(=O)N(c3cccc(C)c3C)C(=O)C12 (centres undefined) | > 10000 nM | 563 nM | > 1250 nM |
| CCCC(=O)N1CCN(C(=O)c2nc(-c3ccccc3)nc(C(C)C)c2C(=O)OC)CC1C (centres undefined) | > 8440 nM | 475 nM | 880 nM |
| COc1ccc(N(CC(=O)NCCc2ccc(F)cc2)S(=O)(=O)c2ccccc2)cc1 | > 100000 nM | 5620 nM | > 12500 nM |
| CCOc1ccc2c(c1)sc(=NC(=O)Nc1ccc(OC)cc1)n2C | 17800 nM | 997 nM | > 8300 nM |
| CCOc1ccccc1-n1c(SCC(=O)c2ccc(Cl)cc2)nc2[nH]ncc2c1=O | 73000 nM | 4020 nM | > 12500 nM |
| CCN1CCC(N2C[C@H](n3cc(C(=O)OC)nn3)C[C@H]2C(=O)NCc2cccc(C(F)(F)F)c2)CC1 | > 10000 nM | > 563 nM | > 1250 nM |
| O=C(C1CCCCN1)N1CC(c2ccccc2)c2ccccc2C1CN1CCCCC1 (centres undefined) | 4680 nM | 257 nM | 439 nM |

| Compound | CC50 [1] | EC50 (Plasmodium falciparum [2]) | EC50 (Plasmodium falciparum [3]) |
| --- | --- | --- | --- |
| Cc1ccccc1OCC(O)Cn1c(NC2CCCCC2)nc2c1c(=O)[nH]c(=O)n2C (centres undefined) | > 10000 nM | 549 nM | > 1700 nM |
| Cc1nc(NC(=N)N)nc2c(C)cccc12 | 16400 nM | 443 nM | 301 nM |
| CCOc1ccc(C(=O)C[N+]2=C(CC)c3ccc(C)n3CC2)cc1 | 81000 nM | 2190 nM | 2440 nM |
| COc1cccc2cc(C(=O)Nc3cccc(C(F)(F)F)c3)c(=O)oc12 | > 2370 nM | 64 nM | > 1250 nM |
| O=C(Nc1ccc2c(c1)CN(C1CCSCC1)CC2)C1(c2ccccc2)CC1 | > 100000 nM | > 5530 nM | > 12500 nM |
| COc1ccc(C(=O)N(C)CCCNc2ccnc3cc(Cl)ccc23)cc1 | > 10000 nM | 553 nM | 797 nM |
| CCN1/C(=C/c2sc3ccc(OC)cc3[n+]2CC)C=Cc2cc(OC)ccc21 | > 10000 nM | 552 nM | 527 nM |
| COC(=O)c1c(N)n(-c2ccccc2OC)c2nc3ccccc3nc12 | > 100000 nM | 2700 nM | > 12500 nM |
| CN(Cc1ccsc1)C(=O)CCc1nnc(CCCc2ccccc2)o1 | > 10000 nM | 270 nM | > 1250 nM |
| CCCCNC(=O)c1ccc(OC2CCN(CC3CCCCC3)CC2)c(Cl)c1 | > 10000 nM | 270 nM | 639 nM |
| O=C(Nc1ccc(-c2nc3ccccc3[nH]2)cc1)c1ccc(-c2ccc(Cl)cc2)o1 | 16600 nM | 444 nM | 193 nM |
| O=C1NC(=O)C(Cc2ccc(S(=O)(=O)N3CCN(c4ccccc4)CC3)cc2)S1 (centres undefined) | > 100000 nM | 5430 nM | 790 nM |
| Cc1cc(/C=C2\SC(=Nc3ccccc3)N(C3CCCCC3)C2=O)c(C)n1-c1ccc(Br)cc1 | > 10000 nM | > 542 nM | 476 nM |
| CCOC(=O)C1=C(N)N(c2cccc([N+](=O)[O-])c2)C2=C(C(=O)CC(C)(C)C2)C1c1ccc(Cl)cc1 (centres undefined) | > 100000 nM | 5550 nM | 6140 nM |
| COc1cc(NC(C)CCCN(Cc2ccccc2OC)C(=O)C(Cl)Cl)c2ncccc2c1 (centres undefined) | > 10000 nM | 554 nM | > 1500 nM |
| COc1ccc(Cn2c(-c3ccc(Cl)cc3)c[n+]3ccccc23)cc1 | > 10000 nM | 541 nM | 693 nM |
| CCN(CC)c1scc(-c2ccc(Br)cc2)[s+]1 | > 10000 nM | 541 nM | 349 nM |
| CC(=O)c1ccc(NC(=O)CN(C)S(=O)(=O)c2ccc3[nH]c4c(c3c2)CCCC4)cc1 | 66900 nM | 3580 nM | > 12500 nM |
| CCC(CC)=NNC(=O)C(=O)NC1CCCCC1 | > 10000 nM | 535 nM | 231 nM |
| COc1cc(CNNc2nc3cc(Cl)ccc3[nH]2)cc(OC)c1OC | > 10000 nM | 541 nM | 308 nM |
| COc1cccc(OCCN2CCN(c3ncnc4c3cnn4-c3ccccc3)CC2)c1 | > 75700 nM | 4050 nM | 6250 nM |
| CCOCCCNC(=O)c1cc(NC(=O)c2ccc(Cl)c([N+](=O)[O-])c2)ccc1N1CCCCC1 | 1420 nM | 77 nM | > 1250 nM |
| COc1ccc(-n2nc(C(C)(C)C)cc2NC(=O)CN(C(=O)c2ccc(C(C)(C)C)cc2)C(C)C)cc1 | 34600 nM | 1850 nM | 1680 nM |

| Compound | CC50 [1] | EC50 (Plasmodium falciparum [2]) | EC50 (Plasmodium falciparum [3]) |
| --- | --- | --- | --- |
| O=C(C1CCN(S(=O)(=O)c2cccc3nonc23)CC1)N1CCCc2ccccc21 | > 10000 nM | 534 nM | > 1250 nM |
| COc1ccccc1Nc1nc(NCC2CCCO2)c2ccccc2n1 (centres undefined) | 29400 nM | 1570 nM | 1040 nM |
| O=C(NCCCCNc1ccnc2cc(Cl)ccc12)C(c1ccccc1)c1ccccc1 | > 8210 nM | 440 nM | 730 nM |
| Clc1ccc(CNCCCn2ccnc2)cc1Cl | > 10000 nM | > 269 nM | > 1250 nM |
| CCC(=O)NCc1nnc(SCc2cccc(C(F)(F)F)c2)n1-c1cccc(OC)c1 | > 100000 nM | 5610 nM | > 12500 nM |
| COc1ccc(C(=O)NC(c2ccc(C)cc2)c2cc(Cl)c3cccnc3c2O)cc1 (centres undefined) | > 100000 nM | 2700 nM | 2420 nM |
| CCCCCCN(C(=O)c1cccc([N+](=O)[O-])c1)C(CC)c1nc2ccccc2c(=O)n1-c1ccccc1OC (centres undefined) | > 6450 nM | 355 nM | 983 nM |
| CCOc1ccc2nc3ccc([N+](=O)[O-])cc3c(NC)c2c1 | > 10000 nM | 534 nM | 222 nM |
| C=CC[n+]1ccc(/C=C/c2ccccc2)c(C)c1 | > 10000 nM | 558 nM | 656 nM |
| CC(C)CCNc1ncc(C(=O)NCC(C)C)c(NCCc2ccccc2)n1 | > 10000 nM | 543 nM | 724 nM |
| CCOc1cc(S(=O)(=O)N2CCCC3(CCCCC3)C2)c(OCC)cc1-n1cnnn1 | > 10000 nM | > 563 nM | > 1250 nM |
| CCCCCCN(C(=O)c1ccc2ccccc2c1)C(CC)c1nc2ccccc2c(=O)n1-c1ccc(F)cc1 (centres undefined) | > 10000 nM | 548 nM | 454 nM |
| COC(=O)C[S+]([O-])c1ccccc1 (centres undefined) | > 10000 nM | 543 nM | 647 nM |
| Cc1cc(/C=C2/SC(=Nc3ccccc3)NC2=O)c(C)n1-c1cccc([N+](=O)[O-])c1 | > 10000 nM | 556 nM | 395 nM |
| COCCCNC(=O)c1cc(NC(=O)CCCCl)ccc1N1CCc2ccccc2C1 | 1130 nM | 30.4 nM | 331 nM |
| C[n+]1cccc(/C=C2/c3ccccc3-c3ncccc32)c1 | > 10000 nM | 555 nM | 809 nM |
| CCN(CC)CCCNC(=S)N(Cc1ccccc1)Cc1cc2cc(C)c(Cl)cc2[nH]c1=O | 20900 nM | 1160 nM | 1940 nM |
| CCc1c(C(=O)N2CCN(C(=O)CCl)C(C)C2)cnn1-c1nc(-c2ccc(Br)cc2)cs1 (centres undefined) | > 8660 nM | 481 nM | 656 nM |
| Cc1ccc(C(OCC(C)(C)C[N+](C)(C)C)c2ccccc2)cc1 (centres undefined) | 23300 nM | 629 nM | 265 nM |
| Cc1ccc(CN=C(N)Nc2nc(C)cc(C)n2)cc1 | 11200 nM | 609 nM | 653 nM |
| Sc1nc2ccc3nsnc3c2[nH]1 | > 10000 nM | 537 nM | 713 nM |
| CCc1cc2c(Sc3nnc(N)s3)ncnc2s1 | > 10000 nM | 540 nM | 546 nM |
